# Data reported in PMC12055641, “The Study of Antistaphylococcal Potential of Omiganan and Retro-Omiganan Under Flow Conditions” (Probiotics and Antimicrobial Proteins, 2024).
# How the values were obtained:
# [1] = test system: S. aureus clinical strain 030N; set-up: method as in earlier work; conditions: clinical isolate 030N, nasal swab; cited from earlier work
# [2] = test system: S. aureus clinical strain 004N (MRSA); set-up: method as in earlier work; conditions: clinical isolate 004N (MRSA), nasal swab; cited from earlier work
# [3] = test system: S. aureus ATCC 33591 (MRSA); assay: microbe, parasite or virus in culture
# Source text: (§1) Clinical S. aureus strains were collected from patients with atopic dermatitis during their visits to the Outpatient Clinic and hospitalization in the Department of Dermatology, Venereology and Allergology at Medical University of Gdańsk (following the approval from the ethics committee, Approval Number NKBBN/242–477/2014). Reference strains of S. aureus ATCC 25923, S. aureus ATCC 33591, S. aureus ATCC 9144, and S. aureus ATCC 12598 were obtained from the American Type Culture Collection. All the strains were stored at − 80 °C in Roti®-Store cryo vials (Carl Roth GmbH, Karlsruhe, Germany) and before the tests were transferred into fresh Mueller–Hinton Medium (BioMaxima, Lublin, Poland) and incubated for 24 h at 37 °C. Subsequently, each bacterial inoculum was seeded on Mueller–Hinton agar plates (BioMaxima) and incubated again for 24 h. The cultures prepared in this way were used in further antimicrobial assays. Minimum inhibitory concentrations (MICs) were determined according to the Clinical and Laboratory Standards Institute recommendations. […] The experiments were conducted on 96-well microtiter plates, with a final volume of 100 μL. Additionally, in the case of daptomycin, the medium was supplemented with Ca^2+ (50 mg/L). Cell densities were adjusted spectrophotometrically (Multiskan™ GO Microplate Spectrophotometer, Thermo Scientific) at 600 nm. The MICs were taken as the lowest drug concentration at which a visible growth of the microorganisms was inhibited. Minimum biofilm eliminating concentrations (MBECs) were determined on 96-well flat-bottomed microtiter polystyrene plates with resazurin (7-hydroxy-3H-phenoxazin-3-one 10-oxide sodium salt) as a cell viability reagent. To do this, the plates were filled with 100 μL of the initial inoculums of bacteria (0.5 × 10^7 CFU/mL) in the Mueller–Hinton broth and incubated for 24 h at 37 °C. […] After 24 h of incubation, 20 μL of resazurin (4 mg/mL) was added to each well and the MBEC values were read. Minimum biofilm inhibitory concentrations (MBICs) were also determined on 96-well flat-bottomed microtiter polystyrene plates as described previously. To do this, 50 μL of the compounds in the concentration range, diluted MHB, were prepared. Subsequently, the 50 μL of the staphylococcal inoculums were added to reach the same density of bacteria as that in the MBEC assay. After 24 h of incubation at 37 °C, the wells were rinsed three times with PBS and the fresh medium (100 μL) with resazurin (0.6 mg/mL) was added. Then, after 1 h of incubation, MBICs were read. […] All experiments were conducted in triplicate.
# (§2) Formation of the biofilm inside the PDMS flow chambers was performed using three peristaltic pumps working simultaneously (LP-pump, Kamush, Lipopharm, Poland) and sterile Tygon® 3350 silicone hoses (2.4 × 0.8 × 0.8 mm) with a length of 30 and 50 cm for inlet and outlet, respectively. Bacterial suspensions were prepared (0.5 × 10^7 CFU/mL) in sterile 50-mL test tubes, which were placed in a heating block at 37 °C. Before experiments, all channels were assessed for tightness and sterilized using a 70% 2-propanol solution (10 min, flow rate 1 mL/min) and rinsed with sterile PBS solution (10 min, flow 0.1 mL/min). The formation of biofilm inside the channels was divided into three stages: (1) adhesion—at this stage S. aureus suspensions were passed through the channels for 4 h at a flow rate of 0.1 mL/min; (2) rinsing—the previously used hoses were replaced with new sterile ones, and the channels were rinsed with sterile PBS solution for 10 min at a flow rate of 0.1 mL/min; (3) biofilm growth—after flushing the channels, the silicone hoses were placed in tubes with MHB medium, which was passed through the channels for 24 h at a flow rate of 0.1 mL/min. All experiments included growth and sterility controls.
# (§3) This assay was conducted also on the S. aureus ATCC 25923 and S. aureus 33,591 (MRSA) strains.
# S. aureus ATCC 25923 = assay: microbe, parasite or virus in culture
# Source text: as §1, §2, §3
# [4] = test system: S. aureus clinical strain 031S; set-up: method as in earlier work; conditions: clinical isolate 031S, skin; cited from earlier work
# [5] = test system: S. aureus clinical strain 005S; set-up: method as in earlier work; conditions: clinical isolate 005S, skin; cited from earlier work
# [6] = test system: S. aureus clinical strain 043SC (MRSA); set-up: method as in earlier work; conditions: clinical isolate 043SC (MRSA), skin of patient with furuncle folliculitis; cited from earlier work
# [7] = test system: S. aureus clinical strain 060S; set-up: method as in earlier work; conditions: clinical isolate 060S, skin; cited from earlier work
# [8] = test system: S. aureus clinical strain 015N (MRSA); set-up: method as in earlier work; conditions: clinical isolate 015N (MRSA), nasal swab; cited from earlier work
# [9] = test system: S. aureus clinical strain 051N (MRSA); set-up: method as in earlier work; conditions: clinical isolate 051N (MRSA), nasal swab; cited from earlier work
# [10] = test system: S. aureus clinical strain 009S; set-up: method as in earlier work; conditions: clinical isolate 009S, skin; cited from earlier work
# [11] = S. aureus ATCC 33591 (MRSA) biofilm treated under flow with Retro-Omiganan (half MBEC) for 48 h
smiles,measurement,setting,value
CC1(C)S[C@@H]2[C@H](NC(=O)[C@H](N)c3ccccc3)C(=O)N2[C@H]1C(=O)O [Ampicillin],Antimicrobial susceptibility (MIC),[1],0.5 µg/mL
same,Antimicrobial susceptibility (MIC),[2],0.5 µg/mL
same,MIC,[3]; S. aureus ATCC 33591 (MRSA) biofilm treated under flow with Retro-Omiganan (half MBEC) for 24 h,> 128 µg/mL
same,MIC,[3]; [11],> 128 µg/mL
same,MIC,[3]; S. aureus ATCC 33591 (MRSA) biofilm treated under flow with Retro-Omiganan (half MBEC) for 72 h,> 128 µg/mL
same,MIC,"[3]; Staphylococcus aureus, 0 h",> 128 µg/mL
same,MIC,"[3]; Staphylococcus aureus, 24 h",> 128 µg/mL
same,MIC,"[3]; Staphylococcus aureus, 48 h",> 128 µg/mL
same,MIC,"[3]; Staphylococcus aureus, 72 h",> 128 µg/mL
same,MIC,S. aureus ATCC 25923; S. aureus 25923 biofilm treated under flow with Retro-Omiganan (half MBEC) for 24 h,0.5 µg/mL
same,MIC,S. aureus ATCC 25923; S. aureus 25923 biofilm treated under flow with Retro-Omiganan (half MBEC) for 48 h,0.5 µg/mL
same,MIC,S. aureus ATCC 25923; S. aureus 25923 biofilm treated under flow with Retro-Omiganan (half MBEC) for 72 h,0.5 µg/mL
same,MIC,"S. aureus ATCC 25923; Staphylococcus aureus, ATCC25923, 0 h",0.5 µg/mL
same,MIC,"S. aureus ATCC 25923; Staphylococcus aureus, ATCC25923, 24 h",0.5 µg/mL
same,MIC,"S. aureus ATCC 25923; Staphylococcus aureus, ATCC25923, 48 h",0.5 µg/mL
same,MIC,"S. aureus ATCC 25923; Staphylococcus aureus, ATCC25923, 72 h",0.5 µg/mL
same,Antimicrobial susceptibility (MIC),[4],0.5 µg/mL
same,Antimicrobial susceptibility (MIC),[5],8 µg/mL
same,Antimicrobial susceptibility (MIC),[6],32 µg/mL
same,Antimicrobial susceptibility (MIC),[7],0.25 µg/mL
same,Antimicrobial susceptibility (MIC),[8],16 µg/mL
same,Antimicrobial susceptibility (MIC),[9],0.25 µg/mL
CCCCCCCCCC(=O)N[C@@H](Cc1c[nH]c2ccccc12)C(=O)N[C@H](CC(N)=O)C(=O)N[C@@H](CC(=O)O)C(=O)N[C@@H]1C(=O)NCC(=O)N[C@@H](CCCN)C(=O)N[C@@H](CC(=O)O)C(=O)N[C@H](C)C(=O)N[C@@H](CC(=O)O)C(=O)NCC(=O)N[C@H](CO)C(=O)N[C@@H]([C@H](C)CC(=O)O)C(=O)N[C@@H](CC(=O)c2ccccc2N)C(=O)O[C@@H]1C [Daptomycin],Antimicrobial susceptibility (MIC),[1],0.125 µg/mL
same,Antimicrobial susceptibility (MIC),[2],2 µg/mL
same,MIC,[3]; [11],1 µg/mL
same,MIC,"[3]; S. aureus ATCC 33591 (MRSA), time 0 h (baseline, before peptide exposure)",2 µg/mL
same,MIC,"[3]; Staphylococcus aureus, ATCC33591|MRSA, 0 h, S. aureus ATCC 33591 (MRSA), time 0 h (baseline, before peptide exposure)",2 µg/mL
same,MIC,"[3]; Staphylococcus aureus, ATCC33591|MRSA, 24 h, S. aureus ATCC 33591 (MRSA) biofilm treated under flow with Omiganan (half MBEC) for 24 h",2 µg/mL
same,MIC,"[3]; Staphylococcus aureus, ATCC33591|MRSA, 24 h, S. aureus ATCC 33591 (MRSA) biofilm treated under flow with Retro-Omiganan (half MBEC) for 24 h",2 µg/mL
same,MIC,"[3]; Staphylococcus aureus, ATCC33591|MRSA, 48 h, S. aureus ATCC 33591 (MRSA) biofilm treated under flow with Omiganan (half MBEC) for 48 h",2 µg/mL
same,MIC,"[3]; Staphylococcus aureus, ATCC33591|MRSA, 48 h, S. aureus ATCC 33591 (MRSA) biofilm treated under flow with Retro-Omiganan (half MBEC) for 48 h",1 µg/mL
same,MIC,"[3]; Staphylococcus aureus, ATCC33591|MRSA, 72 h, S. aureus ATCC 33591 (MRSA) biofilm treated under flow with Omiganan (half MBEC) for 72 h",2 µg/mL
same,MIC,"[3]; Staphylococcus aureus, ATCC33591|MRSA, 72 h, S. aureus ATCC 33591 (MRSA) biofilm treated under flow with Retro-Omiganan (half MBEC) for 72 h",1 µg/mL
same,MIC,"S. aureus ATCC 25923; Staphylococcus aureus, ATCC25923, 0 h, S. aureus 25923, time 0 h (baseline, before peptide exposure)",2 µg/mL
same,MIC,"S. aureus ATCC 25923; Staphylococcus aureus, ATCC25923, 24 h, S. aureus 25923 biofilm treated under flow with Omiganan (half MBEC) for 24 h",2 µg/mL
same,MIC,"S. aureus ATCC 25923; Staphylococcus aureus, ATCC25923, 24 h, S. aureus 25923 biofilm treated under flow with Retro-Omiganan (half MBEC) for 24 h",1 µg/mL
same,MIC,"S. aureus ATCC 25923; Staphylococcus aureus, ATCC25923, 48 h, S. aureus 25923 biofilm treated under flow with Omiganan (half MBEC) for 48 h",2 µg/mL
same,MIC,"S. aureus ATCC 25923; Staphylococcus aureus, ATCC25923, 48 h, S. aureus 25923 biofilm treated under flow with Retro-Omiganan (half MBEC) for 48 h",1 µg/mL
same,MIC,"S. aureus ATCC 25923; Staphylococcus aureus, ATCC25923, 72 h, S. aureus 25923 biofilm treated under flow with Omiganan (half MBEC) for 72 h",2 µg/mL
same,MIC,"S. aureus ATCC 25923; Staphylococcus aureus, ATCC25923, 72 h, S. aureus 25923 biofilm treated under flow with Retro-Omiganan (half MBEC) for 72 h",1 µg/mL
same,Antimicrobial susceptibility (MIC),[4],0.125 µg/mL
same,Antimicrobial susceptibility (MIC),[5],4 µg/mL
same,Antimicrobial susceptibility (MIC),[6],1 µg/mL
same,Antimicrobial susceptibility (MIC),[7],0.125 µg/mL
same,Antimicrobial susceptibility (MIC),[8],2 µg/mL
same,Antimicrobial susceptibility (MIC),[9],2 µg/mL
same,Antimicrobial susceptibility (MIC),[10],0.5 µg/mL
